Results reported in ChEMBL document CHEMBL2074555 (Biochem Pharmacol, 1992).

The molecules below were run against ATP-dependent translocase ABCB1 (Mus musculus, UniProt P21447) (assay: TP_TRANSPORTER: increase in Vinblastine intracellular accumulation in F4-6RADR cells).
Type: functional, cell-based

Sequence of ATP-dependent translocase ABCB1 (P21447 whole entry): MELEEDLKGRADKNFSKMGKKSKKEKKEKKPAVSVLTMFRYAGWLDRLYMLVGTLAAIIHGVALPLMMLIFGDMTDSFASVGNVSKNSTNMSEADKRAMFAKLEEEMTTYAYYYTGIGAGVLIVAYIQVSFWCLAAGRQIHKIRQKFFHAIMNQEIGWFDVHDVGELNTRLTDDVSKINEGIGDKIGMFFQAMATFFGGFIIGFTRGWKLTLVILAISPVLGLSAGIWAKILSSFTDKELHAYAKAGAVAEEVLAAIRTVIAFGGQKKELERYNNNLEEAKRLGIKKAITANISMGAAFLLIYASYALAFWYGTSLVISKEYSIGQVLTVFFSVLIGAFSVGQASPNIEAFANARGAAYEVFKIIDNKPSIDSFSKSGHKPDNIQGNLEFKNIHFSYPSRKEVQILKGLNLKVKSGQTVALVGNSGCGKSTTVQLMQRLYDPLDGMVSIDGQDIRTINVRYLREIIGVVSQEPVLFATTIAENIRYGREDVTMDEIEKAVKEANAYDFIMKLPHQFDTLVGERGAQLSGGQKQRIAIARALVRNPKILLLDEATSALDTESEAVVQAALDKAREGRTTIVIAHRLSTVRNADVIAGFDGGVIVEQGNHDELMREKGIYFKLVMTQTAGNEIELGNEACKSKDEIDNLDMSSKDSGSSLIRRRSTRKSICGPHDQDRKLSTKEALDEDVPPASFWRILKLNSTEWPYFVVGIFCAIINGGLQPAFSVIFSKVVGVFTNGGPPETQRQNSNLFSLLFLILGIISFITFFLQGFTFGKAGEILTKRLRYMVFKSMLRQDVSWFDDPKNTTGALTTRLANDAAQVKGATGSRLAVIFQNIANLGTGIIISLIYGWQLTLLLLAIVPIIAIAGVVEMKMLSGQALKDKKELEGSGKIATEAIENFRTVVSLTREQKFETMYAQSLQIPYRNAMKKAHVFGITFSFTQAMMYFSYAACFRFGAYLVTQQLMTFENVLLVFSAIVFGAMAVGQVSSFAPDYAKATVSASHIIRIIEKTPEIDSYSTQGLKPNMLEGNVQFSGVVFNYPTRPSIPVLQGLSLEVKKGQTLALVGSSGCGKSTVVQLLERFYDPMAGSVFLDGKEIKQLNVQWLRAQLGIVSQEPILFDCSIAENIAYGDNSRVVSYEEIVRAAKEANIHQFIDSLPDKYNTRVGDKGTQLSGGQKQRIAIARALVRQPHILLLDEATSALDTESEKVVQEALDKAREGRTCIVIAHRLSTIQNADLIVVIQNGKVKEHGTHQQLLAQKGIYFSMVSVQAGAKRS

Activity, inhibitor [+]:
COc1cccc(CCN(C)CCCC(C#N)(c2ccc(OC)c(OC)c2)C(C)C)c1 (stereo not drawn)
COC(=O)C1=C(C)NC(C)=C(C(=O)OC(C)C)C1c1cccc2nonc12 (stereo not drawn) [ISRADIPINE]
COc1ccc(CCN(C)CCCC(C#N)(c2cc(OC)c(OC)c(OC)c2)C(C)C)cc1OC (stereo not drawn) [GALLOPAMIL]
COCCOC(=O)C1=C(C)NC(C)=C(C(=O)OC(C)C)C1c1cccc([N+](=O)[O-])c1 (stereo not drawn) [NIMODIPINE]
CCOC(=O)C1=C(C)NC(C)=C(C(=O)OC)C1c1cccc(Cl)c1Cl (stereo not drawn) [FELODIPINE]
CCOC(=O)C1=C(C)NC(C)=C(C(=O)OC)C1c1cccc([N+](=O)[O-])c1 (stereo not drawn) [NITRENDIPINE]
COC(=O)C1=C(C)NC(C)=C(C(=O)OCCCN2CCC(c3ccccc3)(c3ccccc3)CC2)[C@H]1c1cccc([N+](=O)[O-])c1 [NIGULDIPINE]
CC(C)C(C#N)(CCCN(C)CCc1ccccc1)c1ccccc1 (stereo not drawn) [EMOPAMIL]
